Measurements taken from article PMC4298241 (ChemMedChem, 2014).
Read-outs that look alike come from different tables or passages of the source.

Key:
[1] = system: T. brucei (BSF); test: Alamar Blue viability test, T. brucei bloodstream form; format: cell-based; details: Trypanosoma brucei
[2] = system: KB 3-1 cervix cancer cell line; details: read-out: cytotoxicity IC50; cited from earlier work

CCCCCCC1CCCC(C2CCC([C@H]3CC[C@H]([C@H](O)CCCCCCCCCCCCC4=C[C@H](C)OC4=O)O3)O2)O1 (stereo partly drawn) [Compound 6, chamuvarinin]
EC50 ([1]; read-out: T.brucei(BSF) EC50): 1.4 ± 0.1 µM | EC50 ([1]; read-out: pEC50 (converted)): 1.38 µM | IC50 [2]: 0.0008 µM
